Results published in US8796297B2, “4-substituted-2-amino-pyrimidine derivatives” (AbbVie Inc., priority 2009, dated 2014).

How the values were obtained:
[1] = molecular target: T1, rat histamine H3 receptor (Rattus norvegicus (Rat), UniProt Q9QYN8); experiment: FLIPR functional assay (Ca2+, HEK-293 cells coexpressing Gαqi5), rat H3 receptor; format: cell-based; conditions: for Rat Maximum (%): FLIPR, percentage of the response to 1 μM RAMH; for EC50: FLIPR agonist potency
Source text: (§1) There are many methods available to show the effectiveness of compounds as histamine H3 receptor ligands. Histamine H3 receptors from mammalian species have been cloned. Methods to clone, express, and assess the potency and functional activity of such cloned genes are well known to those skilled in the art of molecular biology. […] In the present case, to determine the potency and effectiveness of representative compounds of this invention as histamine-H3 receptor ligands (H3 receptor ligands), the following tests were conducted according to previously described methods (see Esbenshade, et al., Journal of Pharmacology and Experimental Therapeutics 2003, 305, 887-896, Esbenshade, et al., Biochemical Pharmacology 2004, 68, 933-945, and in Krueger, et al., Journal of Pharmacology and Experimental Therapeutics 2005, 314, 271-281): histamine H3 receptors were cloned and stably expressed in HEK-293 (human embryonic kidney) cells coexpressing a Gαqi5. Before testing, cells were loaded with a Ca^+2 sensitive fluorescent dye, in this case Fluo-4. For partial agonist or full agonist ligands, addition of compound to the cells led to an increase in intracellular Ca^+2 which was detected by FLIPR (Fluorescence Imaging Plate Reader; Molecular Devices, Sunnyvale, Calif.) technology. The fluorescence intensities measured before addition of the test compound were subtracted from the fluorescence intensities at later time points. Peak response values determined at each concentration of ligand were expressed as a percentage of the response obtained with a maximal concentration (1 μM) of the full agonist R-α-methyl-histamine (RAMH). Concentration versus response data were analyzed to obtain compound potency as EC50 values for full and partial agonists.

[2] = molecular target: T2, human histamine H3 receptor (Homo sapiens (Human), UniProt Q9Y5N1); experiment: FLIPR functional assay (Ca2+, HEK-293 cells coexpressing Gαqi5), human H3 receptor; format: cell-based; conditions: for EC50: FLIPR agonist potency; for Emax: HEK293, read-out: Human Maximum (%)
Source text: as §1

[3] = molecular target: T2, human histamine H3 receptor; experiment: Radioligand competition binding assay, human H3 receptor; conditions: [3H]-N-α-methylhistamine competition binding
human H3R = human H3R (Homo sapiens (Human), UniProt Q9Y5N1); experiment: GTPγS functional assay, membranes from HEK cells expressing the human H3R; format: biochemical; conditions: for EC50: GTPγS agonist potency
Protocol: (§2) Membranes from HEK cells expressing the human H3R, or from C6 cells expressing the rat H3R, were prepared by homogenization in cold buffer containing 50 mM Tris-HCl (pH 7.4), 5 mM EDTA, 10 mM MgCl2, 1 mM benzamidine, 2 μg/ml aprotinin, 1 μg/ml leupeptin, and 1 μg/ml pepstatin. The homogenate was centrifuged at 40,000 g for 20 min at 4° C., and the resulting pellet was resuspended in 50 mM Tris-HCl (pH 7.4), 5 mM EDTA, and 10 mM MgCl2 and homogenized. Glycerol and bovine serum albumin were added to a final concentration of 10% glycerol and 1% bovine serum albumin. Membranes were diluted in GTPγS assay buffer (25 mM HEPES, 2.5 mM MgCl2, and 75 mM NaCl, pH 7.4) and 10 μg of membrane protein was incubated in a 96-well deep-well block in the presence of 5.0 μM unlabeled GDP, approximately 0.5 nM of [^35S]GTPγS, and increasing concentrations of test compounds. Samples were incubated at 37° C. for 5 min and the assays were terminated by the addition of cold buffer (50 mM Tris-HCl, 75 mM NaCl, and 2.5 mM MgCl2, pH 7.6) and subsequent harvesting onto a Packard Unifilter 96-well GF/B plate followed by extensive washing. Microscint 20 (PerkinElmer Life Sciences) was added to the samples, and bound [^35S]GTPγS was determined using the Topcount (Perkin Elmer Life Sciences). The percentage of [^35S]GTPγS bound in each sample was calculated as a percentage of that bound to control samples incubated in the absence of the H3R agonists (basal). Data were analyzed from experiments performed in triplicate using GraphPad Prism to obtain pEC50 values, Hill slopes, and maximal % response.

[4] = molecular target: T1, rat histamine H3 receptor; experiment: Radioligand competition binding assay, rat H3 receptor; conditions: [3H]-N-α-methylhistamine competition binding
Protocol: To determine the effectiveness of representative compounds of this invention as histamine-3 receptor ligands (H3 receptor ligands), the following tests were conducted according to previously described methods (see European Journal of Pharmacology 1990, 188, 219-227; Journal of Pharmacology and Experimental Therapeutics 1995, 275, 598-604; Journal of Pharmacology and Experimental Therapeutics 1996, 276, 1009-1015; and Biochemical Pharmacology 1973, 22, 3099-3108).
The rat H3 receptor was cloned and expressed in cells, and competition binding assays carried out, according to methods previously described (see Esbenshade, et al. Journal of Pharmacology and Experimental Therapeutics 2005, 313, 165-175; Esbenshade et al., Biochemical Pharmacology 2004, 68, 933-945; and Krueger, et al. Journal of Pharmacology and Experimental Therapeutics 2005, 314, 271-281). Membranes were prepared from C6 or HEK293 cells, expressing the rat histamine H3 receptor, by homogenization on ice in TE buffer (50 mM Tris-HCl buffer, pH 7.4, containing 5 mM EDTA), 1 mM benzamidine, 2 μg/ml aprotinin, 1 μg/ml leupeptin, and 1 μg/ml pepstatin. The homogenate was centrifuged at 40,000 g for 20 minutes at 4° C. This step was repeated, and the resulting pellet was resuspended in TE buffer. Aliquots were frozen at −70° C. until needed. On the day of assay, membranes were thawed and diluted with TE buffer.
Membrane preparations were incubated with [^3H]-N-α-methylhistamine (0.5-1.0 nM) in the presence or absence of increasing concentrations of ligands for H3 receptor competition binding. The binding incubations were conducted in a final volume of 0.5 ml TE buffer at 25° C. and were terminated after 30 minutes. Thioperamide (30 μM) was used to define non-specific binding. All binding reactions were terminated by filtration under vacuum onto polyethylenimine (0.3%) presoaked Unifilters (Perkin Elmer Life Sciences) or Whatman GF/B filters followed by three brief washes with 2 ml of ice-cold TE buffer. Bound radiolabel was determined by liquid scintillation counting. For all of the radioligand competition binding assays, IC50 values and Hill slopes were determined by Hill transformation of the data and pKi values were determined by the Cheng-Prusoff equation.

rat H3R = rat H3R (Rattus norvegicus (Rat), UniProt Q9QYN8); experiment: GTPγS functional assay, membranes from C6 cells expressing the rat H3R; format: biochemical; conditions: for EC50: GTPγS agonist potency
Protocol: as §2

H3 receptor = H3 receptor (Mus musculus (Mouse), UniProt P58406); experiment: Mouse dipsogenia model (water intake); format: in vivo, CD-1 mouse
Protocol: Intraperitoneal administration of an H3 receptor agonist such as R-alpha-methyl-histamine elicits drinking in the hydrated CD-1 mouse (Fox, G. B.; et al. Pharmacology Biochemistry and Behavior 2002, 72, 741-750). This dipsogenic response is an indication of agonist activity in vivo and can be monitored by measuring the water intake of drug-treated animals in a 30 minute period.

[5] = system: acetic acid-induced writhing; experiment: Acetic acid-induced writhing in mice; format: in vivo; conditions: subcutaneous dose of 300 mg/kg, 30 minutes prior to 0.9% acetic acid ip
Protocol: Intraperitoneal injection of 0.9% acetic acid induces a writhing response that is quantified by counting the number of these induced characteristic lengthwise abdominal constrictions with torso elongations in a fixed time period (Langford, D. J.; et al. Science 2006, 312, 1967-1970). Reduction of the number of writhes by a compound administered 30 minutes prior to acetic acid exposure is a measure of analgesic activity.

[6] = FLIPR, percentage of the response to 1 μM RAMH
[7] = [35S]GTPγS bound as percentage of basal

T1 sequence (Q9QYN8 whole entry): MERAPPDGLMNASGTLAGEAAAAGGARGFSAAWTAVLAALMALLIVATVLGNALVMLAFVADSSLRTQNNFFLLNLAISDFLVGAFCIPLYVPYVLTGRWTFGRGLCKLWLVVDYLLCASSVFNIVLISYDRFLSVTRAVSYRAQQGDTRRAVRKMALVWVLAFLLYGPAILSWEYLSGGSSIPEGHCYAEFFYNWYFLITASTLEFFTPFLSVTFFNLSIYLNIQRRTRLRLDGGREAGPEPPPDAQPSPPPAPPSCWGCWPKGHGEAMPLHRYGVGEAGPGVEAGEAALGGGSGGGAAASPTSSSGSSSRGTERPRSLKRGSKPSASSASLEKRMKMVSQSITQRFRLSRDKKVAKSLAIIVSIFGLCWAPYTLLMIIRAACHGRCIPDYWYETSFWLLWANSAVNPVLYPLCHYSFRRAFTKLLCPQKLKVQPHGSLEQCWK
Chain of rat H3R (Q9QYN8 whole entry): as above
Chain of human H3R (Q9Y5N1 whole entry): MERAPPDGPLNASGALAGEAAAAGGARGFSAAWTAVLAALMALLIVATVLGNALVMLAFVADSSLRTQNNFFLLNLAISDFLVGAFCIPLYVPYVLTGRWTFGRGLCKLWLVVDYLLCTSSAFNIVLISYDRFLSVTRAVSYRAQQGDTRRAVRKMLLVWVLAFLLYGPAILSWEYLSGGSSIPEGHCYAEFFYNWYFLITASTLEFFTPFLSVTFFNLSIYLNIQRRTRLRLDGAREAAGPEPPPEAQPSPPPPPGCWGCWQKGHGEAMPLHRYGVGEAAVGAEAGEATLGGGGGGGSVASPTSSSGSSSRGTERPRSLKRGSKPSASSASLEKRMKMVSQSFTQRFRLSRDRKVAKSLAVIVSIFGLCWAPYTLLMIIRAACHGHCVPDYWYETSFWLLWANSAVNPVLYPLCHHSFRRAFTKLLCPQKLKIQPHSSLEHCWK
T2 sequence (Q9Y5N1 whole entry): as above
Chain of H3 receptor (P58406 whole entry): as the sequence (Q9QYN8 whole entry) above, with T15A, A286T, A290G, R387H, I389V counted along it

SMILES | Rat Maximum (%) [1] [%] | EC50 [2] [nM] | Emax [2, 6] [%] | Ki [3] [nM] | EC50 [1] [nM] | Emax (human H3R; 5 min, [35S]GTPγS bound as percentage of basal, read-out: Human Maximum (%)) [%] | EC50 (human H3R) [nM] | Ki [4] [nM] | Emax (rat H3R; 5 min, [35S]GTPγS bound as percentage of basal, read-out: Rat Maximum (%)) [%] | EC50 (rat H3R) [nM] | Human Maximum (%) (human H3R; [7]) | water intake (dipsogenic response) (H3 receptor; dose dependently at 80, 160, and 240 μmol/kg, ip, 30 minute period, hydrated CD-1 mouse) | Rat Maximum (%) (rat H3R; [7]) | Human Maximum (%) [2, 6] [%] | number of writhes [5] | effect on dipsogenic response to Example 1 (H3 receptor; ciproxifan 3 μmol/kg, ip against Example 1 240 μmol/kg)
Nc1nccc(N[C@H]2CC[C@H](N)CC2)n1 [Example 16, Trans-N^4-(4-aminocyclohexyl)pyrimidine-2,4-diamine] | 74.0 | 17700 | 34.2 | > 363 |  |  |  |  |  |  |  |  |  |  |  | 
Cl.Cl.Nc1nccc(N2CCC(N)CC2)n1 [Example 20, 4-(4-aminopiperidin-1-yl)pyrimidin-2-amine dihydrochloride] | 83.0 | 254 | 41 | 302 | 51.7 | 122 | 1050 | 58.9 | 123 | 724 |  |  |  |  |  | 
NCCNc1ccnc(N)n1.O=C(O)C(O)C(O)C(=O)O [Example 1, N^4-(2-aminoethyl)pyrimidine-2,4-diamine(2R,3R)-2,3-dihydroxysuccinate] | 100.0 | 124 |  | 63.1 | 5.47 |  | 513 | 5.5 |  | 174 | 147 | induced water intake | 181 | 60.2 | significantly reduced | 
O=C(c1ccc(OCCCc2cnc[nH]2)cc1)C1CC1 [ciproxifan, reference compound] |  |  |  |  |  |  |  |  |  |  |  |  |  |  |  | blocked
